Assay results from patent publication US12344620B2, “BRD4 inhibitor compound in solid form and preparation method therefor and use thereof” (CSPC ZHONGQI PHARMACEUTICAL TECHNOLOGY (SHIJIAZHUANG) CO., …, priority 2019, dated 2025).
Where two headings read alike, the source gives them in different places.

Tests used:
[1] = In vivo pharmacokinetics test in rat; conditions: plasma, male SD rats, crystalline form A used; for AUC(0-inf): read-out: Area under curve (0-inf) AUC0-inf; for AUC(0-t): read-out: Area under curve (0-t) AUC0-last; for half-life: read-out: Half life T1/2 (converted)
Method: Male SD rats were used as test animals. The compound of formula (I) was administrated intravenously and intragastrically to rats, and then the drug concentrations in the plasma at different time points were determined by the LC/MS/MS method. The in vivo pharmacokinetic behavior of the compound of formula (I) in rats was studied, and its pharmacokinetic characteristics were evaluated.
1.1 Experiment Drug: The Compound of Formula (I) (the Crystalline Form A)
4 healthy adult male SD rats were divided into 2 groups according to the similar weight principle, with 2 rats in each group. The animals were commercially available from Beijing Weitonglihua Laboratory Animals Ltd., animal production license number: SCXK (Beijing) 2016-0006.
An appropriate amount of the sample was taken, 5% final volume of DMSO was added, and then 95% final volume of 20% HP-β-CD was added. The mixture was ultrasonically stirred to obtain a 0.5 mg/mL clear solution. After filtration, it was used for the intravenous administration.
An appropriate amount of the sample was taken, and dissolved in a 0.5% sodium carboxymethyl cellulose solution. The mixture was ultrasonically stirred to obtain a 1 mg/mL homogeneous suspension, which was used for the intragastric administration.
Four male SD rats were divided into two groups. After fasting overnight, the first group was administered intravenously with the administration volume of 4 mL/kg and the dosage of 2 mg/kg. The second group was administered intragastrically with the administration volume of 10 mL/kg and the dosage of 10 mg/kg.
After the male SD rats were intravenously administrated, 100 μL of blood was taken at each time point of 0.0833, 0.25, 0.5, 1, 2, 4, 6, 8 and 24 hours, and placed in test tubes containing 2 μL of EDTA-K2; and after the SD rats were intragastrically administrated, 100 μL of blood was taken at each time point of 0.0833, 0.25, 0.5, 1, 2, 4, 6, 8 and 24 hours, and placed in test tubes containing 2 μL of EDTA-K2. The tube was centrifuged at 3000 g for 15 minutes to separate the plasma, and the separated plasma was stored at −60° C. Animals could be fed 2 hours after the administration.
The LC/MS/MS method was used to measure the content of the compound to be tested in the plasma after the intravenous and intragastric administration to the rats. The linear range of the method was 2.00-6000 nmol/L; the plasma samples were analyzed after the protein precipitation by acetonitrile treatment.

[2] = system: Human breast cancer MDA-MB-231_luc cells; assay: In vivo pharmacodynamics, MDA-MB-231_luc subcutaneous xenograft tumor model; conditions: 50 mg/kg PO BID x 21 days
Method: • Species: mouse • Strain: BALB/c nude mouse • Week-age and weight: 6-8 weeks of age, 18-22 grams of body weight • Sex: Female • Supplier: Shanghai Sippr-BK laboratory animal Co. Ltd.
Human breast cancer MDA-MB-231_luc cells were cultured in monolayer in vitro and the culture conditions were RPMI-1640 culture medium (supplier: Gibco; article number: 22400-089; manufacturing batch number: 4868546) with 10% fetal bovine serum, 100 U/ml penicillin and 100 μg/mL streptomycin. The culture was performed at 37° C. in 5% CO2. Conventional digestion treatment with pancreatin-EDTA for passage was carried out twice a week. When the cells were in the exponential growth phase, the cells were harvested, counted, and inoculated. […]
The experiment index was to investigate whether tumor growth was inhibited, delayed or cured. Tumor diameter was measured twice a week with vernier calipers. […]
The tumor inhibition effect of the compound was evaluated by TGI (%) or relative tumor proliferation rate T/C (%). […]
Relative tumor proliferation rate T/C (%) was calculated according to the below equation: T/C %=TRTV/CRTV×100% (TRTV: RTV of the treatment group; CRTV: RTV of the negative control group). The relative tumor volume (RTV) was calculated according to the results of the tumor measurement. […]

[3] = system: Human prostatic cancer PC-3 cells; assay: In vivo pharmacodynamics, PC-3 subcutaneous xenograft tumor model; conditions: 50 mg/kg PO BID x 21 days
Method: The formulation method of the test substance was the same as in Table 6, and the animal grouping and the dosage regimen were the same as in Table 7.
• Species: mouse • Strain: BALB/c nude mouse • Week-age and weight: 6-8 weeks of age, 18-22 grams of body weight • Sex: male • Supplier: Shanghai Sippr-BK laboratory animal Co. Ltd.
Human prostatic cancer PC-3 cells were cultured in monolayer in vitro, and the culture conditions were F-12K culture medium (supplier: Gibco; article number: 21127-022; manufacturing batch number: 1868870) with 10% fetal bovine serum, 100 U/mL penicillin and 100 μg/mL streptomycin. The culture was performed at 37° C. in 5% CO2. Conventional digestion treatment with pancreatin-EDTA for passage was carried out twice a week. When the cells were in the exponential growth phase, the cells were harvested, counted, and inoculated.
0.1 mL of 10×10^6 PC-3 cells were subcutaneously inoculated into the right-back of each nude mouse. The grouping and administration was started when the average tumor volume reached 100-150 mm^3.
3.3 Tumor measurement, experiment indices, and statistical analysis were the same as MDA-MB-231 model.

With `Cc1sc2c(c1C)C(c1ccc(Cl)cc1)=N[C@@H](CC(=O)Nc1ccc3c(c1)COC3=O)c1nnc(C)n1-2` [Compound of formula (I)] the Vd ([1]; intravenous, 2 mg/kg, read-out: Apparent distribution Vdss) was 1.48 L/kg, the AUC(0-inf) ([1]; intravenous, 2 mg/kg) was 2.22 µM·h and the AUC(0-t) ([1]; intravenous, 2 mg/kg) was 2.21 µM·h. It also gave a clearance ([1]; intravenous, 2 mg/kg, read-out: Clearance rate Cl) of 28.3 mL/min/kg, a half-life ([1]; intravenous, 2 mg/kg) of 0.683 h and a bioavailability ([1]; po, intragastric, 10 mg/kg) of 29.3%. For the same compound, the AUC(0-inf) ([1]; po, intragastric, 10 mg/kg) was 3.25 µM·h, the AUC(0-t) ([1]; po, intragastric, 10 mg/kg) was 3.22 µM·h and the Cmax ([1]; po, intragastric, 10 mg/kg, read-out: Drug concentration in blood Cmax) was 1160 nM. The half-life ([1]; po, intragastric, 10 mg/kg) was 1.01 h, the Tmax ([1]; po, intragastric, 10 mg/kg, read-out: Time to peak Tmax) was 1 h and the “change in body weight of the animals” value [2] was “no significant change”. The tolerability [2] was “well tolerated” and the tolerability [3] was “well tolerated”.
